Data taken from paper PMC8777764, “Design, Synthesis, Biological Evaluation, and Molecular Modeling of 2-Difluoromethylbenzimidazole Derivatives as Potential PI3Kα Inhibitors” (Molecules, 2022).

Target: T1, PI3Kα (Homo sapiens, UniProt P42336)
T1 construct: gene PIK3CA
Assay: Kinase-Glo Plus luminescence kinase assay, […] ATP
Assay type: biochemical

T1 sequence (P42336 whole entry): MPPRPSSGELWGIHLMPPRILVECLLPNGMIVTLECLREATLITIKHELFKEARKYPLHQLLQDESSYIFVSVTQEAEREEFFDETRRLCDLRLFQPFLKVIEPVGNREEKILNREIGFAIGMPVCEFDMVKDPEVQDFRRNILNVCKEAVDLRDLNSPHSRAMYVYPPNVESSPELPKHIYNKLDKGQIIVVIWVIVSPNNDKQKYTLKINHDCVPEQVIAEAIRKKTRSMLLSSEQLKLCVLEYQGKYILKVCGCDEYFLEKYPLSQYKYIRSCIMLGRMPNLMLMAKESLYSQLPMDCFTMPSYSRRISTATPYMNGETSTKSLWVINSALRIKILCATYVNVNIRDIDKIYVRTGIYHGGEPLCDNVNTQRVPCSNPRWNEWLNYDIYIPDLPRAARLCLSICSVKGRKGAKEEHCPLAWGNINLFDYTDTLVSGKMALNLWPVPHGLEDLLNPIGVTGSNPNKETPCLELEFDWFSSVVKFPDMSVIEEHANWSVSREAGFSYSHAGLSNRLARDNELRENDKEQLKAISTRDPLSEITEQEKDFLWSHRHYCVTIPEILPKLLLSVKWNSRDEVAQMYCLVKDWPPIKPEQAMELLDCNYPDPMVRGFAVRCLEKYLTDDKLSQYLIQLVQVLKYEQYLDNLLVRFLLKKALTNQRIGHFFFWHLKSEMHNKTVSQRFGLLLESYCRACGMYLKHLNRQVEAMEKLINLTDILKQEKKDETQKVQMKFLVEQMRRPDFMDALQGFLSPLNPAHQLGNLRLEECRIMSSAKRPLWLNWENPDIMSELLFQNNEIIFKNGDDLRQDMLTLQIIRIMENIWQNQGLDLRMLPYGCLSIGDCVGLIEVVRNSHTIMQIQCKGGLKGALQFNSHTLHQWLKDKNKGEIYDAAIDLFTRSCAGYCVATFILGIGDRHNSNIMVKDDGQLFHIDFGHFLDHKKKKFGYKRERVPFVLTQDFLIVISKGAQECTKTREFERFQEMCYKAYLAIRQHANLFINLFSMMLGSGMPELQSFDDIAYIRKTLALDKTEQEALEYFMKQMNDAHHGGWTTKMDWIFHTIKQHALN

| SMILES | IC50 [nM] |
| --- | --- |
| COc1cccc2c1nc(C(F)(F)F)n2-c1nc(N2CCOCC2)nc(N(C)C2CCN(S(C)(=O)=O)CC2)n1 [compound 86, 4-(4-Methoxy-2-(trifluoromethyl)-1H-benzo[d]imidazol-1-yl)-N-methyl-N-(1-(methylsulfonyl)piperidin-4-yl)-6-morpholino-1,3,5-triazin-2-amine] | 22.8 ± 0.4 |
| CCOc1cccc2c1nc(C(F)(F)F)n2-c1nc(N2CCOCC2)nc(N(C)C2CCN(S(C)(=O)=O)CC2)n1 [compound 87, 4-(4-Ethoxy-2-(trifluoromethyl)-1H-benzo[d]imidazol-1-yl)-N-methyl-N-(1-(methylsulfonyl)piperidin-4-yl)-6-morpholino-1,3,5-triazin-2-amine] | 33.6 ± 2.7 |
